Legend:
[1] = target: T1, flavodoxin of H. pylori (Helicobacter pylori, UniProt O25776); test: Isothermal titration calorimetry (ITC) binding to flavodoxin; details: 50 mM EPPS buffer, pH 9, 7% DMSO; protein around 20 μM; read-out: affinity for flavodoxin (ITC)
T1 construct: made in house; host or cells: E. coli BL21 (pET28a)
Description: The specific binding of the inhibitors of the disclosed compounds to flavodoxin of H. pylori was confirmed by isothermal titration calorimetry (ITC). This technique not only measures the affinity of each compound for the target protein, but also determines the contribution of the enthalpic and entropic components of binding.
The binding experiments were carried out in 50 mM EPPS buffer, pH 9 with 7% DMSO, with the inhibitor in the injection syringe at a concentration of 300-500 μM, and the protein around 20 μM in the measurement cell.

[2] = target: T2, H. pylori flavodoxin (Helicobacter pylori, UniProt O25776); test: Inhibition assay of sequential electron transfer pyruvate/PFOR/flavodoxin/FqrB/NADP+ (NADPH formation at 340 nm); assay type: biochemical; details: 50 μM compound; anaerobic; 10 μM Fld; absorbance at 340 nm
T2 construct: made in house; host or cells: E. coli BL21 (flavodoxin, pET28a); E. coli JVQ2 (PFOR); E. coli BL21(DE3) (FqrB)
T2 sequence (O25776 1-164): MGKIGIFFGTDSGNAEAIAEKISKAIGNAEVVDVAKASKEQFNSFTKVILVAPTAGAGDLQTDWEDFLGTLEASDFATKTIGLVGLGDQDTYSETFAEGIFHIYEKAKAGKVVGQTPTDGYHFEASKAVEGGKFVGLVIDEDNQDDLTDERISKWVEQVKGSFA
Description: Flavodoxin is an essential protein for Helicobacter pylori survival as it participates in a fundamental reaction for obtaining energy from the oxidative decarboxylation of pyruvate. In this reaction, flavodoxin transfers electrons between the PFOR enzyme and the FqrB enzyme, which releases them to NADP^+.
The sequential reaction of electron transfer between pyruvate, PFOR, flavodoxin, FqrB and NADP^+ (activity assay) was followed spectroscopically by the appearance of the signal at 340 nm with the formation of NADPH. The reaction mixture contained 100 mM potassium phosphate pH 7, 10 mM pyruvate, 0.18 mM CoA, 1 mM MgCl, 0.3 mM NADP^+, 0.09 mg/ml PFOR, 10 μM Fld and 0.15 μM FqrB. The mixture, except CoA, was placed in a cuvette specially designed for anaerobic conditions. Oxygen was removed by means of 5 minute cycles with alternate flows of vacuum and argon. The reaction was started by the addition of 0.18 mM coenzyme A (CoA) that was held in a compartment inside the same cuvette. The reaction finished 15 minutes after adding the CoA reagent.
The inhibition assays were carried out in the same conditions as the activity assays previously described, adding an additional 50 μM of the disclosed compound of the general formula shown in (II) to the reaction cuvette.

## O=[N+]([O-])C1=Cc2cc(Cl)cc(Cl)c2OC1c1ccc(F)cc1 (centres unmarked) [formula (II)]
[1]
  Kd: 1600 nM
[2]
  inhibition of NADPH formation (pyruvate oxidative decarboxylation reaction): almost total

Source: patent US8080664B2, “Use of compounds as inhibitors for Helicobacter flavodoxin” (Universidad De Zaragoza, priority 2007, dated 2011)
